Results as given in US12290601B2, “Pharmaceutical composition comprising axitinib” (Synthon B.V., priority 2019, dated 2025).
Read-outs that look alike come from different tables or passages of the source. Each block holds one compound with its values, some of them ahead of it.

Assays:
[1] = Photo-stability of crystalline forms; format: physicochemical; settings: versus form XLI
[2] = Aqueous solubility; format: physicochemical; settings: versus form XLI
[3] = cited from earlier work
[4] = among polymorphic forms; cited from earlier work

photo-stability compared to crystalline axitinib form XLI [1]: less photo-stable | aqueous solubility, fold higher compared to crystalline axitinib form XLI [2]: 2-3 fold
SMILES: CNC(=O)c1ccccc1Sc1ccc2c(/C=C/c3ccccn3)n[nH]c2c1 [axitinib form IV, N-methyl-2-({3-[(E)-2-pyridin-2-ylethenyl]-1H-indazol-6-yl}sulfanyl)benzamide]

SMILES: CNC(=O)c1ccccc1Sc1ccc2c(/C=C/c3ccccn3)n[nH]c2c1 [Axitinib, N-methyl-2-({3-[(E)-2-pyridin-2-ylethenyl]-1H-indazol-6-yl}sulfanyl)benzamide]
solubility [3]: low solubility | solubility ([3]; gastric, pH 1.7): highly soluble

SMILES: CNC(=O)c1ccccc1Sc1ccc2c(/C=C/c3ccccn3)n[nH]c2c1 [Form XLI, N-methyl-2-({3-[(E)-2-pyridin-2-ylethenyl]-1H-indazol-6-yl}sulfanyl)benzamide]
thermodynamic stability [4]: most thermodynamically stable
